According to ChEMBL document CHEMBL5113439, “Rationally Designed Amanitins Achieve Enhanced Cytotoxicity” (J Med Chem, 2022):
Numbered stars: 1 amine (or outer) side, 2 acyl side, 3 side chain; on linkers, the order of the positions; unused ones are H or OH. Bridge positions count the residues as written; N and C are the ends. Square brackets hold non-standard residues; d marks the D form. Peptide text beside a SMILES is read from it. Trp(2-yl) = O=C([C@H](Cc1c([*:3])[nH]c2ccccc12)N[*:1])[*:2]; X4 = O=C([C@H](Cc1c([*:3])[nH]c2ccc(O)cc12)N[*:1])[*:2]; Ile(4R-OH,5-OH) = C[C@H]([C@H](N)C(=O)O)[C@@H](O)CO; X5 = C[C@@H](S[*:3])[C@H](N[*:1])C(=O)[*:2]; X2 = CC[C@H](C)[C@@H](CNNC(=O)[*:2])N[*:1]; X3 = C[C@H](S[*:3])[C@H](N[*:1])C(=O)[*:2]; X1 = CS[C@H](C)[C@H](N[*:1])C(=O)[*:2]; Nva(3-Et) = CCC(CC)[C@H](N)C(=O)O; αMeI = CC[C@H](C)[C@](C)(N)C(=O)O; Hyp = O=C(O)[C@@H]1C[C@@H](O)CN1; Pen = CC(C)(S)[C@H](N)C(=O)O; azaGly = NNC(=O)O

What was measured:
[1] = Cytotoxicity against human HEK293 cells assessed as reduction in cell viability incubated for 72 hrs by MTT assay; format: toxicity, cell-based
[2] = test system: HeLa; assay: Cytotoxicity against human HeLa cells assessed as reduction in cell viability incubated for 72 hrs by MTT assay; format: functional, cell-based
[3] = Cytotoxicity against chinese hamster CHO cells assessed as reduction in cell viability incubated for 72 hrs by MTT assay; format: toxicity, cell-based, Cricetulus griseus
[4] = test system: HepG2; assay: Cytotoxicity against human HepG2 cells assessed as reduction in cell viability incubated for 72 hrs by MTT assay; format: functional, cell-based; conditions: HepG2, 72 h
[5] = Inhibition of RNA polymerase 2 in human HeLa cells nuclear extract using DNA template as substrate incubated for 60 mins by TRA; format: subcellular, Nucleus

SMILES	IC50 at 72 h [1]	IC50 [2]	IC50 at 72 h [3]	IC50 [4]	IC50 [5]
CS[C@H](C)[C@@H]1NC(=O)CNC(=O)[C@@H]2Cc3c([nH]c4ccccc34)SC[C@H](NC(=O)CNC1=O)C(=O)N[C@@H](CC(N)=O)C(=O)N1C[C@H](O)C[C@H]1C(=O)N[C@@H]([C@@H](C)[C@@H](O)CO)C(=O)N2 (cyclo(CN[Hyp][Ile(4R-OH,5-OH)][Trp(2-yl)]G[X1]G); thioether 1-5)	1500 nM	4000 nM	5600 nM	> 10000 nM	8.6 nM
CCC(CC)[C@@H]1NC(=O)CNC(=O)[C@@H]2Cc3c([nH]c4ccccc34)S[C@@H](C)[C@H](NC(=O)CNC1=O)C(=O)N[C@@H](CC(N)=O)C(=O)N1C[C@H](O)C[C@H]1C(=O)N[C@@H]([C@@H](C)[C@@H](O)CO)C(=O)N2 (cyclo(G[Nva(3-Et)]G[X3]N[Hyp][Ile(4R-OH,5-OH)][Trp(2-yl)]); thioether 4-8)	200 nM	600 nM	610 nM	110 nM	9.5 nM
CC[C@H](C)[C@@H]1NC(=O)CNC(=O)[C@@H]2Cc3c([nH]c4ccccc34)S[C@@H](C)[C@H](NC(=O)CNC1=O)C(=O)N[C@@H](CC(N)=O)C(=O)N1C[C@H](O)C[C@H]1C(=O)N[C@@H]([C@@H](C)[C@@H](O)CO)C(=O)N2 (cyclo(GIG[X3]N[Hyp][Ile(4R-OH,5-OH)][Trp(2-yl)]); thioether 4-8)	510 nM	–	1300 nM	–	10 nM
CCC(CC)[C@@H]1NC(=O)CNC(=O)[C@@H]2Cc3c([nH]c4ccccc34)SC[C@H](NC(=O)CNC1=O)C(=O)N[C@@H](CC(N)=O)C(=O)N1C[C@H](O)C[C@H]1C(=O)N[C@@H]([C@@H](C)[C@@H](O)CO)C(=O)N2 (cyclo(CN[Hyp][Ile(4R-OH,5-OH)][Trp(2-yl)]G[Nva(3-Et)]G); thioether 1-5)	370 nM	–	780 nM	–	8.5 nM
CC[C@H](C)[C@H]1CNNC(=O)N[C@H]2CSc3[nH]c4ccccc4c3C[C@H](NC(=O)[C@H]([C@@H](C)[C@@H](O)CO)NC(=O)[C@@H]3C[C@@H](O)CN3C(=O)[C@H](CC(N)=O)NC2=O)C(=O)NCC(=O)N1 (cyclo(CN[Hyp][Ile(4R-OH,5-OH)][Trp(2-yl)]G[X2]); thioether 1-5)	460 nM	830 nM	380 nM	2700 nM	4.7 nM
CC[C@H](C)[C@@H]1NC(=O)CNC(=O)[C@@H]2Cc3c([nH]c4ccc(O)cc34)S[C@@H](C)[C@H](NC(=O)CNC1=O)C(=O)N[C@@H](CC(N)=O)C(=O)N1C[C@H](O)C[C@H]1C(=O)N[C@@H]([C@@H](C)[C@@H](O)CO)C(=O)N2 (cyclo(GIG[X3]N[Hyp][Ile(4R-OH,5-OH)][X4]); thioether 4-8)	880 nM	–	6900 nM	–	14.7 nM
CO[C@H](C)[C@@H]1NC(=O)CNC(=O)[C@@H]2Cc3c([nH]c4ccccc34)SC[C@H](NC(=O)CNC1=O)C(=O)N[C@@H](CC(N)=O)C(=O)N1C[C@H](O)C[C@H]1C(=O)N[C@@H]([C@@H](C)[C@@H](O)CO)C(=O)N2 (cyclo(CN[Hyp][Ile(4R-OH,5-OH)][Trp(2-yl)]GT(Me)G); thioether 1-5)	–	–	> 20000 nM	–	42 nM
CC[C@H](C)[C@@H]1NC(=O)CNC(=O)[C@@H]2Cc3c([nH]c4ccccc34)SC(C)(C)[C@H](NC(=O)CNC1=O)C(=O)N[C@@H](CC(N)=O)C(=O)N1C[C@H](O)C[C@H]1C(=O)N[C@@H]([C@@H](C)[C@@H](O)CO)C(=O)N2 (cyclo(GIG[Pen]N[Hyp][Ile(4R-OH,5-OH)][Trp(2-yl)]); thioether 4-8)	–	–	9300 nM	–	17.7 nM
CC[C@H](C)[C@@H]1NC(=O)CNC(=O)[C@@H]2Cc3c([nH]c4ccccc34)S[C@H](C)[C@H](NC(=O)CNC1=O)C(=O)N[C@@H](CC(N)=O)C(=O)N1C[C@H](O)C[C@H]1C(=O)N[C@@H]([C@@H](C)[C@@H](O)CO)C(=O)N2 (cyclo(GIG[X5]N[Hyp][Ile(4R-OH,5-OH)][Trp(2-yl)]); thioether 4-8)	–	–	> 20000 nM	–	> 128 nM
CC[C@H](C)[C@]1(C)NC(=O)NNC(=O)[C@@H]2Cc3c([nH]c4ccccc34)SC[C@H](NC(=O)CNC1=O)C(=O)N[C@@H](CC(N)=O)C(=O)N1C[C@H](O)C[C@H]1C(=O)N[C@@H]([C@@H](C)[C@@H](O)CO)C(=O)N2 (cyclo(CN[Hyp][Ile(4R-OH,5-OH)][Trp(2-yl)][azaGly][αMeI]G); thioether 1-5)	450 nM	–	2400 nM	–	5.3 nM
C[C@H]([C@@H]1NC(=O)[C@@H]2C[C@@H](O)CN2C(=O)[C@H](CC(N)=O)NC(=O)[C@@H]2CSc3[nH]c4ccccc4c3C[C@H](NC1=O)C(=O)NCC(=O)N[C@H](C1CCCC1)C(=O)NCC(=O)N2)[C@@H](O)CO	–	–	6900 nM	–	47 nM
CCC(CC)[C@@H]1NC(=O)CNC(=O)[C@@H]2Cc3c([nH]c4ccc(O)cc34)SC[C@H](NC(=O)CNC1=O)C(=O)N[C@@H](CC(N)=O)C(=O)N1C[C@H](O)C[C@H]1C(=O)N[C@@H]([C@@H](C)[C@@H](O)CO)C(=O)N2 (cyclo(CN[Hyp][Ile(4R-OH,5-OH)][X4]G[Nva(3-Et)]G); thioether 1-5)	320 nM	–	2500 nM	–	17.8 nM
CC[C@H](C)[C@@H]1NC(=O)CNC(=O)[C@@H]2Cc3c([nH]c4cc(O)ccc34)[S+]([O-])C[C@H](NC(=O)CNC1=O)C(=O)N[C@@H](CC(N)=O)C(=O)N1C[C@H](O)C[C@H]1C(=O)N[C@@H]([C@@H](C)[C@@H](O)CO)C(=O)N2 (stereo partly drawn)	1000 nM	1000 nM	1000 nM	560 nM	1 nM
CC[C@H](C)[C@@H]1NC(=O)CNC(=O)[C@@H]2Cc3c([nH]c4ccccc34)SC[C@H](NC(=O)CNC1=O)C(=O)N[C@@H](CC(N)=O)C(=O)N1C[C@H](O)C[C@H]1C(=O)N[C@@H]([C@@H](C)[C@@H](O)CO)C(=O)N2 (cyclo(CN[Hyp][Ile(4R-OH,5-OH)][Trp(2-yl)]GIG); thioether 1-5)	–	–	1300 nM	–	9.5 nM
CCC(CC)[C@@H]1NC(=O)CNC(=O)[C@@H]2Cc3c([nH]c4ccc(O)cc34)S[C@@H](C)[C@H](NC(=O)CNC1=O)C(=O)N[C@@H](CC(N)=O)C(=O)N1C[C@H](O)C[C@H]1C(=O)N[C@@H]([C@@H](C)[C@@H](O)CO)C(=O)N2 (cyclo(G[Nva(3-Et)]G[X3]N[Hyp][Ile(4R-OH,5-OH)][X4]); thioether 4-8)	510 nM	–	2400 nM	–	13.8 nM
